Here are results for seven compounds from patent publication US9475328B2, “Developer for thermally responsive record materials” (Valspar Sourcing, Inc., priority 2012, dated 2016).

The structures appear in SMILES notation.

One assay deals with T1, human estrogen receptor (Homo sapiens, UniProt P03372).
T1 sequence (P03372 1-595): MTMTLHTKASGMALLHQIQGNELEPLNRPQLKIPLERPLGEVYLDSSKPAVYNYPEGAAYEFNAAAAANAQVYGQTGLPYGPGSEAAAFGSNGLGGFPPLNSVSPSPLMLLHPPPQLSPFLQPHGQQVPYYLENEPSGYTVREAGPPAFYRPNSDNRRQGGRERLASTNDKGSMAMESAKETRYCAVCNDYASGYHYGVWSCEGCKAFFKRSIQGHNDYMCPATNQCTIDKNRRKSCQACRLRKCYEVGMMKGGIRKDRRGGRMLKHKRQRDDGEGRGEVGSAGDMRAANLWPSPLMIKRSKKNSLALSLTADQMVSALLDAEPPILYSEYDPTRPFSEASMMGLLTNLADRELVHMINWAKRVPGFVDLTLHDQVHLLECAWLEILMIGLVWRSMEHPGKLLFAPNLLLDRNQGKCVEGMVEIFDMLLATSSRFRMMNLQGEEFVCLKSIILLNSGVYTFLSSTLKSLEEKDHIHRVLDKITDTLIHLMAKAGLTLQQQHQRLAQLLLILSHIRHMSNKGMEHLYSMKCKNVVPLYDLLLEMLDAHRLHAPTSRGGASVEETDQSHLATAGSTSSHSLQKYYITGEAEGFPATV
In words: suitable in vitro assay whose results correlate with the MCF-7 assay (estrogenic activity). Format: cell-based. The settings on record: in vitro assay correlated to MCF-7 assay through common reference compounds.
Consider `Cc1cc(Cc2cc(C)cc(C(C)(C)C)c2O)c(O)c(C(C)(C)C)c1` [Structure 9], for which the estrogenic activity result is listed as “do not exhibit appreciable estrogenic activity”.

As for `Cc1cc(Cc2cc(C)c(O)c(C)c2)cc(C)c1O` [Structure 6, 4,4′-methylenebis(2,6-dimethylphenol)], the estrogenic activity result is “do not exhibit appreciable estrogenic activity”.

Regarding `CC(C)(C)c1cc(O)c(C(C)(C)C)cc1O` [Structure 12, 2,5-di-t-butylhydroquinone], the estrogenic activity entry was “do not exhibit appreciable estrogenic activity”.

As to `CCCC(c1cc(C(C)(C)C)c(O)cc1C)c1cc(C(C)(C)C)c(O)cc1C` [Structure 7, 4,4′-butylidenebis(2-t-butyl-5-methylphenol)], the estrogenic activity entry was “do not exhibit appreciable estrogenic activity”.

In the case of `CC(C)(C)c1cc(Cc2cc(C(C)(C)C)c(O)c(C(C)(C)C)c2)cc(C(C)(C)C)c1O` [Structure 8, 4,4′-methylenebis(2,6-di-t-butylphenol)], the estrogenic activity result is on record as “do not exhibit appreciable estrogenic activity”.

A further assay relates to MCF-7, clone WS8 cells. In words: MCF-7 cell proliferation assay of estrogenic activity. The assay is classed as cell-based, human. The settings on record: logarithmic (base 10) Relative Proliferative Effect vs 17-beta estradiol; cell proliferation measured as total DNA; values 'expected or measured'. The text has this:
The MCF-7 assay is a useful test for assessing whether a polyhydric phenol compound is appreciably non-estrogenic. The MCF-7 assay uses MCF-7, clone WS8 cells to measure whether and to what extent a substance induces cell proliferation via estrogen receptor (ER)-mediated pathways. The method is described in “Test Method Nomination: MCF-7 Cell Proliferation Assay of Estrogenic Activity” submitted for validation by CertiChem, Inc. to the National Toxicology Program Interagency Center for the Evaluation of Alternative Toxicological Methods (NICEATM) on Jan. 19, 2006 (available online at http://iccvam.niehs.nih.gov/methods/endocrine/endodocs/SubmDoc.pdf).
A brief summary of the method of the aforementioned MCF-7 assay is provided below. MCF-7, clone WS8 cells are maintained at 37° C. in RMPI (Roswell Park Memorial Institute medium) containing Phenol Red (e.g., GIBCO Catalog Number 11875119) and supplemented with the indicated additives for routine culture. […] At the end of the 7 day exposure to the test chemical, the media is removed, the wells are washed once with 0.2 ml of HBSS (Hanks' Balanced Salt Solution), and then assayed to quantify amounts of DNA per well using a micro-plate modification of the Burton diphenylamine (DPA) assay, which is used to calculate the level of cell proliferation. […]
Regarding `C[C@]12CC[C@@H]3c4ccc(O)cc4CC[C@H]3[C@@H]1CC[C@@H]2O` [17β-estradiol], the “Log RPE” value came out at 2.00.

Regarding `Oc1ccc(Cc2ccc(O)cc2)cc1` [Bisphenol F], the “Log RPE” value is on record as −2.
